Measured values published in patent US7906530B2, “1,7-naphthyridine derivatives as p38 MAP kinase inhibitors” (Laboratorios Almirall, S.A., priority 2006, dated 2011).

Key:
[1] = test system: TNFα production in human monocytic cell line THP-1; assay: Functional assay: inhibition of LPS-induced TNFα production in THP-1 cells; assay type: cell-based; details: LPS 10 μg/ml, 5 h at 37° C., TNFα ELISA
[2] = target: T1, human p38alfa (SAPKa) enzyme (Homo sapiens, UniProt Q16539); assay: p38alpha enzymatic inhibition assay (FRET, ATF2 phosphorylation); assay type: biochemical; details: 1 h pre-incubation; biotinylated ATF2 0.62 μM, ATP 60 μM; 1 h at 25° C.; read-out: p38α IC50
T1 construct: purchased University of Dundee
T1 sequence (Q16539 whole entry): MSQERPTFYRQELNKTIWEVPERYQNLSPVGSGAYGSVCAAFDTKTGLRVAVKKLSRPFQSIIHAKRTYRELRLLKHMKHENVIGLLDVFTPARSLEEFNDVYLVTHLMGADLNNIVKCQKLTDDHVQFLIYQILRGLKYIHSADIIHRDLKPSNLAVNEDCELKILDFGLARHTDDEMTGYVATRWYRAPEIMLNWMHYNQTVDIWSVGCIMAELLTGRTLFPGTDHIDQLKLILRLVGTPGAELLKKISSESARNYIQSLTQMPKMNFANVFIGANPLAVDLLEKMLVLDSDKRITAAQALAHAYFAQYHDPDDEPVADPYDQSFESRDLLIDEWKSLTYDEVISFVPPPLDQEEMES

IC50 [1] [nM]	IC50 [2] [nM]	Structure (SMILES)
3.4	2.8	CC(C)(C)N1CCC(c2cc(-c3ccc(F)cc3F)c3cc[n+]([O-])c(-c4c(F)cccc4F)c3n2)CC1 [Example 35, 2-(1-Tert-butylpiperidin-4-yl)-4-(2,4-difluorophenyl)-8-(2,6-difluorophenyl)-1,7-naphthyridine 7-oxide]
1.6	1.2	CC(C)(C)N1CCC(c2cc(-c3ccc(F)cc3F)c3cc[n+]([O-])c(-c4c(Cl)cccc4Cl)c3n2)CC1 [Example 36, 2-(1-Tert-butylpiperidin-4-yl)-8-(2,6-dichlorophenyl)-4-(2,4-difluorophenyl)-1,7-naphthyridine 7-oxide]
2.9		[O-][n+]1ccc2c(-c3ccc(F)cc3Cl)cc(C3CCNCC3)nc2c1-c1c(Cl)cccc1Cl [Example 43, 4-(2-Chloro-4-fluorophenyl)-8-(2,6-dichlorophenyl)-2-piperidin-4-yl-1,7-naphthyridine 7-oxide]
3	1.6	CC(C)(C)N1CCC(c2cc(-c3ccc(F)cc3Cl)c3cc[n+]([O-])c(-c4c(F)cccc4F)c3n2)CC1 [Example 48, 2-(1-Tert-butylpiperidin-4-yl)-4-(2-chloro-4-fluorophenyl)-8-(2,6-difluorophenyl)-1,7-naphthyridine 7-oxide]
0.46		CC(C)(C)N1CCC(c2cc(-c3ccc(F)cc3Cl)c3cc[n+]([O-])c(-c4c(Cl)cccc4Cl)c3n2)CC1 [Example 49, 2-(1-Tert-butylpiperidin-4-yl)-4-(2-chloro-4-fluorophenyl)-8-(2,6-dichlorophenyl)-1,7-naphthyridine 7-oxide]
0.53	0.34	[O-][n+]1ccc2c(-c3ccccc3Cl)cc(C3CCNCC3)nc2c1-c1c(Cl)cccc1Cl [Example 53, 4-(2-Chlorophenyl)-8-(2,6-dichlorophenyl)-2-piperidin-4-yl-1,7-naphthyridine 7-oxide]
0.1	0.41	CC(C)(C)N1CCC(c2cc(-c3ccccc3Cl)c3cc[n+]([O-])c(-c4c(Cl)cccc4Cl)c3n2)CC1 [Example 59, 2-(1-Tert-butylpiperidin-4-yl)-4-(2-chlorophenyl)-8-(2,6-dichlorophenyl)-1,7-naphthyridine 7-oxide]

More lines, now with the values behind:

Structure (SMILES)	IC50 [1] [nM]	IC50 [2] [nM]
[O-][n+]1ccc2c(-c3ccc(F)cc3F)ccnc2c1-c1c(F)cccc1F [Example 19, 4-(2,4-Difluorophenyl)-8-(2,6-difluorophenyl)-1,7-naphthyridine 7-oxide]	223	
[O-][n+]1ccc2c(-c3ccc(F)cc3F)cc(C3CCNCC3)nc2c1-c1c(F)cccc1F [Example 29, 4-(2,4-Difluorophenyl)-8-(2,6-difluorophenyl)-2-piperidin-4-yl-1,7-naphthyridine 7-oxide]	2.45	0.9
[O-][n+]1ccc2c(-c3ccc(F)cc3Cl)ccnc2c1-c1c(F)cccc1F [Example 39, 4-(2-Chloro-4-fluorophenyl)-8-(2,6-difluorophenyl)-1,7-naphthyridine 7-oxide]	63	87
[O-][n+]1ccc2c(-c3ccc(F)cc3Cl)ccnc2c1-c1c(Cl)cccc1Cl [Example 40, 4-(2-Chloro-4-fluorophenyl)-8-(2,6-dichlorophenyl)-1,7-naphthyridine 7-oxide]	43.5	
[O-][n+]1ccc2c(-c3ccccc3Cl)cc(C3CCNCC3)nc2c1-c1c(F)cccc1F [Example 52, 4-(2-Chlorophenyl)-8-(2,6-difluorophenyl)-2-piperidin-4-yl-1,7-naphthyridine 7-oxide]	4.2	
[O-][n+]1ccc2c(-c3ccc(F)cc3F)cc(NC3CCNCC3)nc2c1-c1c(Cl)cccc1Cl [Example 86, 8-(2,6-Dichlorophenyl)-4-(2,4-difluorophenyl)-N-piperidin-4-yl-1,7-naphthyridin-2-amine 7-oxide]	0.9	0.37
[O-][n+]1ccc2c(-c3ccc(F)cc3F)cc(N3CCNCC3)nc2c1-c1c(Cl)cccc1Cl [Example 90, 8-(2,6-Dichlorophenyl)-4-(2,4-difluorophenyl)-2-piperazin-1-yl-1,7-naphthyridine 7-oxide]	0.8	1.1
[O-][n+]1ccc2c(-c3ccc(F)cc3F)cc(N3CCNCC3)nc2c1-c1c(F)cccc1F [Example 91, 4-(2,4-Difluorophenyl)-8-(2,6-difluorophenyl)-2-piperazin-1-yl-1,7-naphthyridine 7-oxide]	4.1	
[O-][n+]1ccc2c(-c3ccc(F)cc3F)cc(OC3CCNCC3)nc2c1-c1c(Cl)cccc1Cl [Example 95, 8-(2,6-Dichlorophenyl)-4-(2,4-difluorophenyl)-2-(piperidin-4-yloxy)-1,7-naphthyridine 7-oxide]	0.2	0.92
[O-][n+]1ccc2c(-c3ccc(F)cc3F)cc(OC3CCNCC3)nc2c1-c1c(F)cccc1F [Example 96, 4-(2,4-Difluorophenyl)-8-(2,6-difluorophenyl)-2-(piperidin-4-yloxy)-1,7-naphthyridine 7-oxide]	3.2	0.22
